The results in this text go back to US6127360A, “Diamine derivatives and pharmaceutical containing the same” (Kowa Co., Ltd., priority 1997, dated 2000).

Each structure is given as a SMILES string. Counter-ions that a name gives are not always drawn.

The target of one assay is T1, LTD4 receptor (Cavia porcellus, UniProt Q2NNR5).
T1 construct: guinea pig pulm-omembranous protein and a test compound; from tissue; host or cells: guinea pig lung membranes
T1 sequence (Q2NNR5 1-340): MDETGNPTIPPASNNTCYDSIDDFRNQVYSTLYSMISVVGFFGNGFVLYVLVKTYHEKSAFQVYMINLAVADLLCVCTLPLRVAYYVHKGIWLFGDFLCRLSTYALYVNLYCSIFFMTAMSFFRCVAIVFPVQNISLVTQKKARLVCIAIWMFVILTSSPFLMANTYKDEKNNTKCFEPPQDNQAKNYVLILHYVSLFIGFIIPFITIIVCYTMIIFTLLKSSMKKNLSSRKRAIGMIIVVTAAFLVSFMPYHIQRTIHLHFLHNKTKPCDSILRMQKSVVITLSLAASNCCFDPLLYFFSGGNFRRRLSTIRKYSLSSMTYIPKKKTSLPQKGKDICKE
Put plainly: LTD4 Receptor Binding Inhibition Test ([3H]LTD4, guinea pig pulmomembranous protein). The note with it: read-out: LTD4 receptor dissociation constant (KD). How it is done:
LTD4 Receptor Binding Inhibition Test
An ice-cold tris hydrochloride/sodium chloride buffer (10 mM/100 mM, pH 7.5) was added to terminate the reaction, followed by immediate filtration through a Wattman CF/C filter. The filter was washed twice with 20 ml aliquots of the ice-cold buffer. The radioactivity of the residue was measured by a liquid scintillation counter.
In a binding assay, […] LTD4 was used for the measurement of a nonspecific binding.

Another assay has as its target T2, H1 receptor (Cavia porcellus, UniProt P31389).
T2 construct: guinea pig cerebromembranous protein and a test compound; from tissue; host or cells: guinea pig brain membranes
The assay is described as follows: H1 Receptor Binding Inhibition Test ([3H]mepyramin, guinea pig cerebromembranous protein). The note with it: read-out: H1 receptor dissociation constant (KD). How it is done: H1 Receptor Binding Inhibition Test
An ice-cold phosphate buffer was added to terminate the reaction, followed by immediate filtration through a Wattman CF/C filter. The filter was washed twice with 20 ml aliquots of the ice-cold buffer. The radio-activity of the residue was measured by a liquid scintillation counter. From a measurement value obtained without the addition of the test compound and measurements values obtained upon addition of the test compound at various concentrations, the dose-response of the inhibitory action of the test compound was measured and the 50% inhibitory concentration (IC50) was determined. Using the Cheng-Prusoff formula, a dissociation constant (KD) was calculated from the 50% inhibitory concentration (IC50).
In a binding assay, 10^4 M R(-)dimethindene was used for the measurement of a nonspecific binding.

Assay [1] has as its target T3, isolated guinea pig ileum (Cavia porcellus, UniProt Q2NNR5).
T3 construct: An isolated guinea pig ileum was cut into about 2 cm lengths; from tissue; host or cells: guinea pig ileum
T3 sequence (Q2NNR5 1-340): T1 sequence (Q2NNR5 1-340)
The assay is described as follows: Anti-LTD4 action on isolated guinea pig ileum (LTD4 contraction). The class given is cell-based. The note with it: 10^-5 M test compound; contraction caused by 10^-8 M LTD4; read-out: Anti-LTD4 action (inhibition rate). How it is done: Antihistaminic Action and Anti-LTD4 Action (In vitro Tests)
An isolated guinea pig ileum was cut into about 2 cm lengths. Each ileum piece was suspended in a 20-ml container filled with the Tyrode's buffer. An isotonic contractive response by histamine or LTD4 was recorded on a recorder. The Tyrode's buffer was controlled at 30° C., through which a mixed gas (95%O2 -5%CO2) was bubbled.

T2 sequence (P31389 whole entry): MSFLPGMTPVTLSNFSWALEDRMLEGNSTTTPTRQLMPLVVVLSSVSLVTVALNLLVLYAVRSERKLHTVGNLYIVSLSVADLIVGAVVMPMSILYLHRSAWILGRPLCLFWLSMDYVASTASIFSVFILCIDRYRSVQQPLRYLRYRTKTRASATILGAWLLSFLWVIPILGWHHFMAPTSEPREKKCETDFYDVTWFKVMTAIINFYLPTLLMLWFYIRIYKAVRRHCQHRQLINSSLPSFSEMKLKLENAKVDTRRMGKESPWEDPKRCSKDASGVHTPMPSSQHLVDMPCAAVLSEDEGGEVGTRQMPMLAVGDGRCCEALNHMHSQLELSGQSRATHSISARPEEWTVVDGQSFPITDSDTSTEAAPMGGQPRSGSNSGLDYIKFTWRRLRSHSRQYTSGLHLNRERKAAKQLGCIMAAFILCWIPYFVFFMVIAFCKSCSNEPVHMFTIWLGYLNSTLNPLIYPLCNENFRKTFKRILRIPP

As for `CC1(C)C(=O)Nc2ccc(OCCN3CCN(Cc4ccc5ccccc5n4)CC3)cc21` [Example 1, 3,3-dimethyl-5-{2-[4-(2-quinolylmethyl)-1-piperazinyl]ethoxy}-2,3-dihydro-1H-indol-2-one], the Ki on LTD4 receptor was found to be 3.24 µM; on H1 receptor, 173 nM. In addition, in assay [1], the inhibition (as a rule, the percentage by which the read-out fell short of the control) at 10 µM came to 16%.

For the compound `Cc1ccc(OCCCCCN2CCN(Cc3ccc4ccccc4n3)CC2)c2c1NC(=O)C2(C)C` [Example 9, 3,3,7-Trimethyl-4-{5-[4-(2-quinolylmethyl)-1-piperazinyl]pentyloxy}-2,3-dihydro-1H-indol-2-one], the Ki on LTD4 receptor came to 49.6 µM; on H1 receptor, 13.5 nM. Further, in assay [1], the inhibition at 10 µM is 40%.

On to `Cc1ccc(OCCCN2CCN(Cc3nc4ccccc4n3C)CC2)c2c1NC(=O)C2(C)C` [Example 26, 3,3,7-Trimethyl-4-{3-[4-(N-methylbenzoimidazol-2-ylmethyl)-1-piperazinyl]propoxy}-2,3-dihydro-1H-indol-2-one], for which the Ki is 3.34 µM at LTD4 receptor and 36.3 nM at H1 receptor. For the same compound, the inhibition at 10 µM in assay [1] was determined as 27%.

With `CC1(C)C(=O)Nc2c(OCCCN3CCN(Cc4ccc5ccccc5n4)CC3)cccc21` [Example 29, 3,3-Dimethyl-7-{3-[4-(2-quinolylmethyl)-1-piperazinyl]propoxy}-2,3-dihydro-1H-indol-2-one], the inhibition at 10 µM in assay [1] was found to be 48%.

On to `O=C1CCc2ccc(OCCN3CCN(Cc4ccc5ccccc5n4)CC3)cc2N1` [Example 32, 7-{2-[4-(2-Quinolylmethyl)-1-piperazinyl]ethoxy}-1,2,3,4-tetrahydroquinolin-2-one], for which the inhibition at 10 µM in assay [1] came out at 20%.

As to `O=c1ccc2ccc(OCCCN3CCN(Cc4ccc5ccccc5n4)CC3)cc2[nH]1` [Example 36, 7-{3-[4-(2-Quinolylmethyl)-1-piperazinyl]propoxy}-1,2-dihydroquinolin-2-one], the Ki is 1.99 µM at LTD4 receptor and 0.00349 nM at H1 receptor. Moreover, the inhibition at 10 µM in assay [1] was found to be 46%.

As to `O=c1ccc2ccc(OCCN3CCN(Cc4ccc5ccccc5n4)CC3)cc2[nH]1` [Example 39, 7-{2-[4-(2-Quinolylmethyl)-1-piperazinyl]ethoxy}-1,2-dihydroquinolin-2-one], the inhibition at 10 µM in assay [1] is 30%.

`CC1(C)C(=O)Nc2cccc(OCCCN3CCN(Cc4ccc5ccccc5n4)CC3)c21` [Example 41, 3,3-Dimethyl-4-{3-[4-(2-quinolylmethyl)-1-piperazinyl]propoxy}-2,3-dihydro-1H-indol-2-one]: the Ki at LTD4 receptor was found to be 3.83 µM; on H1 receptor, 4.32 nM.

Regarding `CC1(C)C(=O)Nc2cc(OCCCCCN3CCN(Cc4ccc5ccccc5n4)CC3)ccc21` [Example 42, 3,3-Dimethyl-6-{5-[4-(2-quinolylmethyl)-1-piperazinyl]pentyloxy}-2,3-dihydro-1H-indol-2-one], the inhibition at 10 µM in assay [1] came to 13%.

Consider `O=C1CCc2cccc(OCCCCN3CCN(Cc4ccc5ccccc5n4)CC3)c2N1` [Example 44, 8-{4-[4-(2-Quinolylmethyl)-1-piperazinyl]butoxy}-1,2,3,4-tetrahydroquinolin-2-one], for which the inhibition at 10 µM in assay [1] stood at 47%.

With `O=C1CCc2cccc(OCCCN3CCN(Cc4ccc5ccccc5n4)CC3)c2N1` [Example 45, 8-{3-[4-(2-Quinolylmethyl)-1-piperazinyl]propoxy)-1,2,3,4-tetrahydroquinolin-2-one], the results for the Ki on LTD4 receptor and at H1 receptor were 1.98 µM and 3.39 nM, respectively.

With `CC1(C)C(=O)Nc2ccc(OCCN3CCCN(Cc4ccc5ccccc5n4)CC3)cc21` [Example 50, 3,3-dimethyl-5-{2-[4-(2-quinolylmethyl)-1-homopiperazinyl]ethoxy}-2,3-dihydro-1H-indol-2-one dimaleate], the Ki on LTD4 receptor amounted to 8.6 µM; on H1 receptor, 457 nM.

Turning to `Cc1ccc(OCCN2CCCN(Cc3ccc4ccccc4n3)CC2)c2c1NC(=O)C2(C)C` [Example 54, 3,3,7-Trimethyl-4-{2-[4-(2-quinolylmethyl)-1-homopiperazinyl]ethoxy}-2,3-dihydro-1H-indol-2-one], the Ki was 881 µM on LTD4 receptor and 0.249 nM on H1 receptor.

For `Cc1ccc(OCCCN2CCCN(Cc3ccc4ccccc4n3)CC2)c2c1NC(=O)CC2` [Example 60, 8-Methyl-5-{3-[4-(2-quinolylmethyl)-1-homopiperazinyl]propoxy}-1,2,3,4-tetrahydroquinolin-2-one], the Ki at LTD4 receptor was 8.73 µM; on H1 receptor, 5.45 nM.

Take `Cc1ccc(OCCN2CCCN(Cc3ccc4ccccc4n3)CC2)c2c1NC(=O)CC2` [Example 61, 8-Methyl-5-{2-[4-(2-quinolylmethyl)-1-homopiperazinyl]ethoxy}-1,2,3,4-tetrahydroquinolin-2-one]: the Ki at LTD4 receptor was 1.61 µM; on H1 receptor, 4.69 nM. The inhibition at 10 µM in assay [1] stood at 19%.

Regarding `CC1(C)C(=O)Nc2c(OCCCN3CCCN(Cc4ccc5ccccc5n4)CC3)cccc21` [Example 69, 3,3-Dimethyl-7-{3-[4-(2-quinolylmethyl)-1-homopiperazinyl]propoxy}-2,3-dihydro-1H-indol-2-one], in assay [1], the inhibition at 10 µM was determined as 25%.

As to `Cn1c(CN2CCCN(CCOc3ccc4c(c3)CCC(=O)N4)CC2)nc2ccccc21` [Example 75, 6-{2-[4-(N-Methylbenzoimidazol-2-ylmethyl)-1-homopiperazinyl]ethoxy}-1,2,3,4-tetrahydroquinolin-2-one], the Ki stood at 7.34 µM on LTD4 receptor and 55.8 nM at H1 receptor.

As to `Cn1c(CN2CCCN(CCOc3ccc4[nH]c(=O)ccc4c3)CC2)nc2ccccc21` [Example 77, 6-{2-[4-(N-Methylbenzoimidazol-2-ylmethyl)-1-homopiperazinyl]ethoxy}-1,2-dihydroquinolin-2-one], the Ki stood at 110 µM on LTD4 receptor and 74.5 nM at H1 receptor.

Take `CC1(C)C(=O)Nc2cc(OCCCN3CCCN(Cc4ccc5ccccc5n4)CC3)ccc21` [Example 78, 3,3-Dimethyl-6-{3-[4-(2-quinolylmethyl)-1-homopiperazinyl]propoxy}-2,3-dihydro-1H-indol-2-one]: the figures for the Ki at LTD4 receptor and on H1 receptor were 7.43 µM and 18.2 nM, respectively. Also, the inhibition at 10 µM in assay [1] is 27%.

As for `O=C1CCc2ccc(OCCN3CCCN(Cc4ccc5ccccc5n4)CC3)cc2N1` [Example 81, 7-{2-[4-(2-Quinolylmethyl)-1-homopiperazinyl]ethoxy}-1,2,3,4-tetrahydroquinolin-2-one], the inhibition at 10 µM in assay [1] was determined as 19%.

`CCOCCn1c(CN2CCCN(CCCOc3ccc4c(c3)SCC(=O)N4)CC2)nc2ccccc21` [Example 83, 7-{3-[4-(N-Ethoxyethylbenzoimidazol-2-ylmethyl)-1-homopiperazinyl]-propoxy}-3,4-dihydro-2H-1,4-benzothiazin-3-one]: the inhibition at 10 µM in assay [1] worked out at 26%.

Regarding `O=C1CCc2cccc(OCCCN3CCCN(Cc4ccc5ccccc5n4)CC3)c2N1` [Example 88, 8-{3-[4-(2-Quinolylmethyl)-1-homopiperazinyl]propoxy}-1,2,3,4-tetrahydroquinolin-2-one], in assay [1], the inhibition at 10 µM amounted to 12%.

Regarding `O=C1CCc2cccc(OCCCCN3CCCN(Cc4ccc5ccccc5n4)CC3)c2N1` [Example 89, 8-{4-[4-(2-Quinolylmethyl)-1-homopiperazinyl]butoxy}-1,2,3,4-tetrahydroquinolin-2-one], the inhibition at 10 µM in assay [1] amounted to 21%.

In the case of `Cc1ccc(OCCN2CCN(Cc3ccc4ccccc4n3)CC2)c2c1NC(=O)C2(C)C` [Example 93, 3,3,7-Trimethyl-4-{2-[4-(2-quinolylmethyl)-1-piperazinyl]ethoxy}-2,3-dihydro-1H-indol-2-one], the Ki at LTD4 receptor came to 5.9 µM; at H1 receptor it was 71 nM.

As to `Cc1ccc(OCCCN2CCCN(Cc3ccc4ccccc4n3)CC2)c2c1NC(=O)C2(C)C` [Example 97, 3,3,7-Trimethyl-4-{3-[4-(2-quinolylmethyl)-1-homopiperazinyl]propoxy}-2,3-dihydro-1H-indol-2-one], the results for the Ki on LTD4 receptor and on H1 receptor were 15.9 µM and 187 nM, respectively.

For `O=C1CSc2cc(OCCCN3CCN(C(=O)c4ccc5ccccc5n4)CC3)ccc2N1` [Example 102, 7-{3-[4-(2-quinolylcarbonyl)piperazinyl]propoxy}-3,4-dihydro-2H-1,4-benzothiazin-3-one maleate], the inhibition at 10 µM in assay [1] worked out at 10%.
